# Test results from patent US20260273020A1, “OBESTATIN FOR USE AS ANTINEOPLASTIC AGENT IN THE TREATMENT OF PANCREATIC CANCER” (SERVIZO GALEGO DE SAÚDE, priority 2023, published 2026).
# Tests used:
# Type in all cases: in vivo, C57BL/6J mice
# [1] = tested on: pERK1/2(T202/Y204), ERK1/2, pAkt(S473), Akt; assay: Immunoblot of tumoral pancreatic tissue: ERK1/2 and Akt
# Description: (§1) FIG. 4. (A) Analysis and quantification of Ki67 positive proliferative cells by immunohistochemistry in the pancreatic tumors of C57BL/6J mice (n=4) orthotopically injected with KPC FC1242 cells and treated with vehicle [NaCl, 0.9% (w/v)] or obestatin (500 nmol/Kg/72 h). Magnification: 4×. (B) Immunoblot analysis of pERK1/2(T202/Y204), ERK1/2, pAkt(S473), and Akt in tumoral pancreatic tissue. Results are expressed as fold of control of the non-treated injected mice [control; mean±SE (*, P<0.05)].
# (§2) Mice were weighed at set times over the 15-day period. The sterilized surgical material was used for the tissue extraction. Pancreases and muscles were carefully removed from each animal minimizing contamination with surrounding tissue or mouse hair. Pancreases and muscles were weighed. The skeletal muscles selected were: tibialis anterior, TA; extensor digitorum longus, EDL; gastrocnemius, GAST; soleus, SOL; and diaphragm, DIA. Pancreases were also measured with a scale (cm) and pictures were taken. • Histology—Pancreas samples for histology were fixed in 4% paraformaldehyde in PBS at room temperature overnight. After fixation, samples were dehydrated and embedded in paraffin blocks. For this study, 3-micron sections were cut from each block and placed on pre-cleaned slides (Thermo Fisher Scientific, Waltham, MA, USA). […] The lysates were clarified by centrifugation (18,000×g, 15 min, 4° C.), and the protein concentration was quantified by the Quantipro™ BCA assay kit (Sigma-Aldrich, St. Louis, MO, US).
# Tissues were disrupted and homogenized in ice-cold lysis buffer [50 mM Tris-HCl pH 7.2, 150 mM NaCl, 1 mM EDTA, 1% (v/v) NP-40, 0.25% (w/v) Na-deoxycholate, protease inhibitor cocktail (PIC; 1:100; Sigma Chemical Co., St. Luis, MO, US), phosphatase inhibitor cocktail (PHIC; 1:100; Sigma Chemical Co., St. Luis, MO, US)] with 5 mm stainless steel beads using a TissueLyser (Qiagen, Hilden, DE) at 30 Hz for 3 min. […] Supernatants were recovered and the protein was quantified with BCA Protein Assay Kit (Thermo Fisher Scientific, Rockford, IL, US). […]
# [2] = tested on: p62, LC3, cleaved caspase 3, Bax, HIF1a; assay: Immunoblot of pancreatic tumors: apoptosis, autophagy, HIF1a; details: obestatin 500 nmol/Kg/72 h
# Description: (§3) FIG. 5. Immunoblot analysis of p62, LC3, cleaved caspase 3, Bax, and HIF1a in the pancreatic tumors of C57BL/6J mice (n=4) orthotopically injected with KPC FC1242 cells and treated with vehicle [NaCl, 0.9% (w/v)] or obestatin (500 nmol/Kg/72 h). Results are expressed as fold of control of the non-treated injected mice [control; mean±SE (*, P<0.05)].
# Mice were weighed at set times over the 15-day period. The sterilized surgical material was used for the tissue extraction. Pancreases and muscles were carefully removed from each animal minimizing contamination with surrounding tissue or mouse hair. Pancreases and muscles were weighed. The skeletal muscles selected were: tibialis anterior, TA; extensor digitorum longus, EDL; gastrocnemius, GAST; soleus, SOL; and diaphragm, DIA. Pancreases were also measured with a scale (cm) and pictures were taken. • Histology—Pancreas samples for histology were fixed in 4% paraformaldehyde in PBS at room temperature overnight. After fixation, samples were dehydrated and embedded in paraffin blocks. For this study, 3-micron sections were cut from each block and placed on pre-cleaned slides (Thermo Fisher Scientific, Waltham, MA, USA). The sectioned tissue slides were covered with a thin layer of paraffin, stoked at 60° C. for 1 hour and stored protected from light at room temperature to preserve the antigenicity of sections. • Immunoblot—For immunoblot analysis, pancreases were immediately frozen in dry ice and stored at −80° C. until use. Tissues were homogenized using a TissueLyser II tissue homogenizer (Qiagen, Hilden, DE), in 200 μL of RIPA lysis buffer at 30 Hz for 3 min. The lysates were clarified by centrifugation (18,000×g, 15 min, 4° C.), and the protein concentration was quantified by the Quantipro™ BCA assay kit (Sigma-Aldrich, St. Louis, MO, US).
# Tissues were disrupted and homogenized in ice-cold lysis buffer [50 mM Tris-HCl pH 7.2, 150 mM NaCl, 1 mM EDTA, 1% (v/v) NP-40, 0.25% (w/v) Na-deoxycholate, protease inhibitor cocktail (PIC; 1:100; Sigma Chemical Co., St. Luis, MO, US), phosphatase inhibitor cocktail (PHIC; 1:100; Sigma Chemical Co., St. Luis, MO, US)] with 5 mm stainless steel beads using a TissueLyser (Qiagen, Hilden, DE) at 30 Hz for 3 min. The soluble cell lysates were pre-cleared by centrifuging at 14,000 rpm for 15 min. Supernatants were recovered and the protein was quantified with BCA Protein Assay Kit (Thermo Fisher Scientific, Rockford, IL, US). The same amount of protein for each sample was separated on 7-15% SDS/polyacrylamide gels and transferred to nitrocellulose membranes (Bio-Rad, Hercules, CA, US). The blots were incubated with 5% bovine serum albumin (BSA) in a Tris buffer solution (TBS) containing Tween-20 [TBST; 20 mM Tris-HCl (pH 8.0), 150 mM NaCl, 0.1% (v/v) Tween-20, solution used for all incubation and washing steps] for 1 h. The blots were then incubated with the corresponding primary antibodies and subsequently were incubated with the corresponding peroxidase-conjugated IgG antibody (Table 1). After washing, the signals were visualized using an ECL plus Western Blotting Detection System (Pierce ECL Western Blotting Substrate; Thermo Fisher Scientific, Pierce, Rockford, IL, US). The image processing was performed using the NIH Image Software ImageJ 1.53o (National Institutes of Health, Bethesda, MD, US).
# [3] = tested on: pNF-kB p65(S536), pSTAT3(S727); assay: Immunoblot of pancreatic tumors: NF-kB and STAT3; details: obestatin 500 nmol/Kg/72 h
# Description: as §3, with “8.” for “5.”, “pNF-kB p65(S536), NF-kB p65, pSTAT3(Y705), pSTAT3(S727),” for “p62, LC3, cleaved caspase 3, Bax,”, “STAT3” for “HIF1a”
# as §2, with “US). […]” for “US).”
# [4] = tested on: Ki67 positive proliferative cells; assay: Ki67 immunohistochemistry of pancreatic tumours; details: tumour area; obestatin 500 nmol/Kg/72 h
# Description: as §1
# Mice were weighed at set times over the 15-day period. The sterilized surgical material was used for the tissue extraction. […] Pancreases were also measured with a scale (cm) and pictures were taken. • Histology—Pancreas samples for histology were fixed in 4% paraformaldehyde in PBS at room temperature overnight. […] The lysates were clarified by centrifugation (18,000×g, 15 min, 4° C.), and the protein concentration was quantified by the Quantipro™ BCA assay kit (Sigma-Aldrich, St. Louis, MO, US). […]
# EnVision™ peroxidase FLEX/HRP (Dako Agilent Technologies, Glostrup; DK) was employed as a detection system. […] Ki67 was analysed immunohistochemically. […] For Ki67 expression quantification in the samples, ten fields of the tumour representative DAB images were quantified by using the Fiji/Image J software.
# [5] = obestatin 500 nmol/Kg/72 h, referenced to non-treated animals
substance,measurement,setting,value
obestatin,total expressions of ERK and AKT,[1]; Western blotting,unchanged
same,"Akt activation augmented, pAkt(S473)",[1]; [5],369.5±100.1%
same,"reduction in ERK1/2 activation, pERK1/2(T202/Y204)",[1]; [5],~50%
same,increased expression of HIF1a,[2]; compared to control or vehicle-treated animals,106.6±17.8%
same,diminution in LC3-I,[2]; pancreatic tumors,9.2±7.5%
same,increase in cleaved caspase 3,[2]; pancreatic tumors,264.6±57.7%
same,increase in levels of proapoptotic Bax,[2]; pancreatic tumors,141.6±28.4%
same,reduction in LC3-II levels,[2]; pancreatic tumors,21.8±7.3%
same,upregulation in p62,[2]; pancreatic tumors,75.7±20.8%
same,downregulation of pNF-KB p65(S536),[3],43.6±9.0%
same,downregulation of pSTAT3(S727),[3],52.3±12.4%
same,diminution in the number of Ki67 positive cells,[4],56.0±5.2%
